In patent publication US6964983B2, “Compounds that modulate PPAR activity and methods for their preparation” (Warner-Lambert Company, LLC, priority 2002, dated 2005) one finds EC50 and melting point data, which are given here for 24 compounds.

Data set [1] addresses T1, hPPARβ (Homo sapiens, UniProt Q03181).
T1 sequence (Q03181 171-441 limits assumed): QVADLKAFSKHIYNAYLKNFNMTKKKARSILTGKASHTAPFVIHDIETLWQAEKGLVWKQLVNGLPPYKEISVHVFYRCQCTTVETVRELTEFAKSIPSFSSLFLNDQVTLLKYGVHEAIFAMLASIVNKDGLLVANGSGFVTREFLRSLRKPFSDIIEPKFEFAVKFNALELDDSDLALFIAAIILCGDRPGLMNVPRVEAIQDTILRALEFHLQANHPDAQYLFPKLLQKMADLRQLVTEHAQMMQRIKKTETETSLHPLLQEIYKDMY
The data set can be described thus: Transient transfection assay in HepG2 cells, Gal4-hPPARβ chimeric receptor, luciferase reporter. In kind it is cell-based. The note with it: Hep G2-hBeta EC50, 24 hours incubation; read-out: EC50β nM (Group). How it is done: (§1) 1. Test A. Transient Transfections Assay using the HepG2 Hepatoma Cell Line.
(§2) HepG2 cells were transiently transfected with an expression plasmids encoding hPPARα, hPPARβ or mPPARγ chimeric receptors and a reporter containing the yeast upstream activating sequence (UAS) upstream of the viral E1B promoter controlling a luciferase reporter gene. In addition, the plasmid pRSVβ-gal was used to control for transfection efficiency. HepG2 cells were grown in DMEM supplemented with 10% FBS and 1 μM non-essential amino acid. On the first day, cells were split into 100 mm dishes at 2.5×10^6/dish and incubated overnight at 37° C./5% CO2. On the second day the cells were transiently transfected with plasmid DNA encoding a chimeric receptor, the luciferase reporter gene; and β-gal. For each 100 mm dish, 15 μg of lucifease reporter (PG5E1b) DNA, 15 μg of Gal4-PPAR chimeric receptor DNA, and 1.5 μg of β-gal plasmid DNA were mixed with 1.4 ml of opti-MEM in the tube. 28 μl of LipoFectamine-2000 reagent was added to 1.4 ml of opti-MEM in the tube, and incubate for 5 min at RT. The diluted Lipofectamine-2000 reagent was combined with the DNA mixture, and incubate for 20 min at RT. After fresh medium was added to each 100 mm dish of cells, 2.8 ml of Lipofectamine2000-DNA mixture was added dropwise to the 100 mm dish containing 14 ml of medium, and incubate 37° C. overnight. On day three cells were trypsinized off the 100 mm dishes and re-plated on 96 well plates. Cells were plated at 2.5×10^4 cells per well in 150 μl of media and 50 μl of compound diluted by media was added. The test compound added were in the range from 50 μM to 50 pM. After addition of compounds, the plates were incubated at 37° C. for 24 hours. Subsequently cells were washed with once with 100 μl of PBS, lysed, and processed for measuring luciferase and β-gal activity using Dual-Light luciferase kit from Tropix ®, according to the manufacturer's recommendations, on an EG&G Bethold MicroLumat LB96P luminometer. EC50 values were obtained using the GraphPad Prism™ program.
(In general: Reporter assays use an easily measured gene product as a stand-in for the process of interest.)

Data set [2] concerns the target T2, hPPARα (Homo sapiens, UniProt Q07869).
T2 sequence (Q07869 200-468 limits assumed): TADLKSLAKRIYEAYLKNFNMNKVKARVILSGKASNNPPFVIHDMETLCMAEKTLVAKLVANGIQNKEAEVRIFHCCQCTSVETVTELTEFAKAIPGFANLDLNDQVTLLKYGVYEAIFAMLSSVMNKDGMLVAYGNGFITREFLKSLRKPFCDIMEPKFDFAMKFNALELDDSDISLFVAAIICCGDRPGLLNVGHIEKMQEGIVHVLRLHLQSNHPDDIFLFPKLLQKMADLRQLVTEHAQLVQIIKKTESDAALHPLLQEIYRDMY
Nature of the data set: Transient transfection assay in HepG2 cells, Gal4-hPPARα chimeric receptor, luciferase reporter. In kind it is cell-based. The note with it: Hep G2-hAlpha EC50, 24 hours incubation; read-out: EC50α nM (Group). How it is done: as §1, §2

A value given as a limit tells only on which side of the number the result lay.

Consider `Cc1cc(SCc2ccc(-c3ccc(C(F)(F)F)cn3)cc2)ccc1OCC(=O)O` [Example 30, {2-Methyl-4-[4-(5-trifluoromethyl-pyridin-2-yl)-benzylsulfanyl]-phenoxy}-acetic acid], for which the EC50 in data set [1] and in data set [2] was 1000 to 2000 nM in each case.

Turning to `O=C(O)COc1ccc(SCc2cccc(-c3ccc(C(F)(F)F)cn3)c2)c2c1CCC2` [Example 53, {7-[3-(5-Trifluoromethyl-pyridin-2-yl)-benzylsulfanyl]-indan-4-yloxy}-acetic acid], the EC50 in data set [1] is less than 300 nM; in data set [2], 1000 to 2000 nM.

In the case of `O=C(O)COc1ccc(SCc2cccc(-c3ccc(C(F)(F)F)cc3)c2)c2c1CCC2` [Example 48, [7-(4′-Trifluoromethyl-biphenyl-3-ylmethylsulfanyl)-indan-4-yloxy]-acetic acid], the EC50 in data set [1] is less than 300 nM; in data set [2], 2000 to 5000 nM.

As for `COc1cc(OCC(=O)O)c(C)cc1SCc1cc(-c2ccc(C(F)(F)F)cc2)no1` [Example 46, {5-Methoxy-2-methyl-4-[3-(4-trifluoromethyl-phenyl)-isoxazol-5-ylmethylsulfanyl]-phenoxy}-acetic acid], the EC50 in data set [1] and in data set [2] was less than 300 nM each time.

With `Cc1cc(SCc2cc(-c3ccc(C(F)(F)F)cc3)on2)ccc1OCC(=O)O` [Example 42, {2-Methyl-4-[5-(4-trifluoromethyl-phenyl)-isoxazol-3-ylmethylsulfanyl]-phenoxy}-acetic acid], the EC50 in data set [2] was in the range of 2000 to 5000 nM.

With `COc1cc(OCC(=O)O)c(C)cc1SCc1cccc(-c2ccc(C(F)(F)F)cc2)c1` [Example 49, [5-Methoxy-2-methyl-4-(4′-trifluoromethyl-biphenyl-3-ylmethylsulfanyl)-phenoxy]-acetic acid], the EC50 in data set [1] is less than 300 nM; in data set [2] it was 300 to 500 nM.

As usually defined, the melting point is the temperature, or range, at which the solid turns liquid. As for `O=C(O)COc1ccc(SCc2cc(-c3ccccc3Cl)on2)c2c1CCC2` [Example 87, {7-[5-(2-Chloro-phenyl)-isoxazol-3-ylmethylsulfanyl]-indan-4-yloxy}-acetic acid], the melting point was 161 to 162 °C. The EC50 in data set [1] was in the range of 2000 to 5000 nM.

Consider `Cc1onc(-c2c(Cl)cccc2Cl)c1CSc1ccc(OCC(=O)O)c2c1CCC2` [Example 88, {7-[3-(2,6-Dichloro-phenyl)-5-methyl-isoxazol-4-ylmethylsulfanyl]-indan-4-yloxy}-acetic acid], for which the melting point fell in the range of 151 to 152 °C. Besides, the EC50 in data set [1] is greater than 5000 nM.

The compound `O=C(O)COc1ccc(SCc2cc(-c3ccc(C(F)(F)F)cc3)no2)c2c1CCC2` [Example 89, {7-[3-(4-Trifluoromethyl-phenyl)-isoxazol-5-ylmethylsulfanyl]-indan-4-yloxy}-acetic acid] returned a melting point of 166 to 168 °C. Further, the EC50 in data set [1] was in the range of 1000 to 2000 nM.

In turn, `Cc1cc(SCc2ccc(OCc3ccc(C(F)(F)F)cc3)cc2)c(Cl)cc1OCC(=O)O` [Example 61, {5-Chloro-2-methyl-4-[4-(4-trifluoromethyl-benzyloxy)-benzylsulfanyl]-phenoxy}-acetic acid] had a melting point of 142 to 143 °C. In addition, in data set [1], the EC50 fell in the range of 300 to 500 nM.

In the case of `O=C(O)COc1ccc(SCc2ccc(OCc3cc(Cl)ccc3Cl)cc2)c2c1CCCO2` [Example 85, {8-[4-(2,5-Dichloro-benzyloxy)-benzylsulfanyl]-chroman-5-yloxy}-acetic acid], the melting point fell in the range of 98 to 100 °C. Further, in data set [1], the EC50 was in the range of 1000 to 2000 nM.

`O=C(O)COc1ccc(SCc2cccc(OCc3ccc(Cl)c(C(F)(F)F)c3)c2)c2c1CCC2` [Example 80, {7-[3-(4-Chloro-3-trifluoromethyl-benzyloxy)-benzylsulfanyl]-indan-4-yxoly}-acetic acid] yielded a melting point of 121 to 122 °C. Further, the EC50 in data set [1] was in the range of 1000 to 2000 nM.

`Cc1cc(SCc2ccc(OCc3ccc(C(F)(F)F)cc3)cc2)c2c(c1OCC(=O)O)CCC2` [Example 64, {5-Methyl-7-[4-(4-trifluoromethyl-benzyloxy)-benzylsulfanyl]-indan-4-yloxy}-acetic acid] showed a melting point of 165 to 167 °C. Moreover, the EC50 in data set [1] was greater than 5000 nM.

Take `O=C(O)COc1ccc(SCc2ccc(OCc3ccc(F)cc3F)cc2)c2c1CCC2` [Example 66, {7-[4-(2,4-Difluoro-benzyloxy)-benzylsulfanyl]-indan-4-yloxy}-acetic acid]: the melting point lay within 158 to 160 °C. In addition, the EC50 in data set [1] is greater than 5000 nM.

Consider `O=C(O)COc1ccc(SCc2ccc(OCc3cc(Cl)cc(Cl)c3)cc2)c2c1CCC2` [Example 77, {7-[4-(3,5-Dichloro-benzyloxy)-benzylsulfanyl]-indan-4-yloxy}-acetic acid], for which the melting point is 134 to 135 °C. The EC50 in data set [1] was 300 to 500 nM.

Compound `Cc1cc(SCc2ccc(OCc3ccc(Cl)cc3)cc2)ccc1OCC(=O)O` [Example 58, {4-[4-(4-Chloro-benzyloxy)-benzylsulfanyl]-2-methyl-phenoxy}-acetic acid] yielded a melting point of 164 °C. Moreover, the EC50 in data set [1] lay in the range of 2000 to 5000 nM.

Regarding `O=C(O)COc1ccc(SCc2ccc(-c3ccc(C(F)(F)F)cn3)cc2)c2c1CCC2` [Example 26, {7-[4-(5-Trifluoromethyl-pyridin-2-yl)-benzylsulfanyl]-indan-4-yloxy}-acetic acid], the melting point is 220 °C (dec.). The EC50 in data set [1] is less than 300 nM.

As for `CCCCc1cc(SCc2ccc(-c3ccc(C(F)(F)F)cc3)cc2)ccc1OCC(=O)O` [Example 100, 2-[2-butyl-4-({4-[4-(trifluoromethyl)phenyl]phenyl}methylthio)phenoxy]acetic acid], the melting point lay within 155 to 157 °C. Also, the EC50 in data set [1] lay in the range of 500 to 1000 nM.

On to `O=C(O)COc1ccc(CCc2ccc(-c3ccc(C(F)(F)F)cc3)cc2)c2c1CCC2` [Example 91, {7-[2-(4′-Trifluoromethyl-biphenyl-4-yl)-ethyl]-indan-4-yloxy}-acetic acid], for which the melting point fell in the range of 188 to 190 °C. The EC50 in data set [1] lay within 2000 to 5000 nM.

With `O=C(O)COc1ccc(SCc2ccc(OCc3cc(Cl)ccc3Cl)cc2)c2c1CCC2` [Example 71, {7-[4-(2,5-Dichloro-benzyloxy)-benzylsulfanyl]-indan-4-yloxy}-acetic acid], the melting point was in the range of 158 to 160 °C. In addition, in data set [1], the EC50 was 500 to 1000 nM.

As for `COc1ccc(COc2ccc(CSc3ccc(OCC(=O)O)c4c3CCC4)cc2)cc1` [Example 68, {7-[4-(4-Methoxy-benzyloxy)-benzylsulfanyl]-indan-4-yloxy}-acetic acid], the melting point lay within 183 to 185 °C. For the same compound, the EC50 in data set [1] was in the range of 1000 to 2000 nM.

For `O=C(O)COc1ccc(SCc2ccc(OCc3ccc(Cl)cc3)cc2)c2c1CCC2` [Example 70, {7-[4-(4-Chloro-benzyloxy)-benzylsulfanyl]-indan-4-yloxy}-acetic acid], the melting point is 170 to 172 °C. Moreover, the EC50 in data set [1] fell in the range of 500 to 1000 nM.

`O=C(O)COc1ccc(SCc2ccc(OCc3ccc(F)cc3)cc2)c2c1CCC2` [Example 65] showed a melting point of 153 to 155 °C. For the same compound, in data set [1], the EC50 was greater than 5000 nM.

Take `O=C(O)COc1ccc(SCc2cc(-c3ccc(Cl)cc3)no2)c2c1CCC2` [Example 98, {7-[3-(4-Chloro-phenyl)-isoxazol-5-ylmethylsulfanyl]-indan-4-yloxy}-acetic acid]: the melting point lay within 158 to 160 °C. In data set [1], the EC50 is 2000 to 5000 nM.
